According to patent US12280090B2, “Antimicrobial peptides” (priority 2018, dated 2025):
Converted amounts (≈) assume the structure as drawn. Like-named read-outs stand apart in the source and are kept apart here. Ends that are not written are not given here. Peptide text beside a SMILES is read from it.

Columns and labels:
[1] = test system: Salmonella Heidelberg (MDR); type: cell-based
Text: (§1) The ATCC (American Type Culture Collection) strains received from Cedarlane. Multi drug resistant (MDR) strains, as clinical isolates, were received from the laboratory of Dr. Linda Hoang.
(§2) Putative antimicrobial peptides were synthesized by GeneScript. A-list antimicrobial peptides re-synthesized by GeneScript. P2_CCH, P5_CCH, and P5_CCH_A19K were each synthesized under two conditions: standard synthesis using TFA, and the other with TFA-removal using acetate as a counter-ion. A MIC method, adapted for use with cationic antimicrobial peptides, was used to evaluate MIC antimicrobial activity (Hancock 1999).
(§3) The following data are presented to show the activity (MIC/MBC in μg/mL) of certain antimicrobial peptides described herein relative to a modified/synthetic version having a specified substitution. While data presented in tables above may be presented again, or may be represented in data provided in the tables below, such duplication is believed to assist the reader in readily noting comparisons. Different Run Numbers noted in the following tables denotes experiments conducted on different days, with each run reflecting multiple n values.

[2] = test system: Methicillin resistant Staphylococcus aureus; type: cell-based
Method: (§4) Independent experiments were conducted with different strains of Staphylococcus aureus—ATCC 29213 “wild type”; and Staphylococcus aureus—Methicillin resistant Staphylococcus aureus.
as §1, §2, §3

[3] = test system: Staphylococcus aureus—ATCC 29213 “wild type”; type: cell-based
Method: as §4, §1, §2, §3

[4] = test system: Escherichia coli—ATCC 25922 “wild type”; type: cell-based
Method in brief: (§5)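 MIC/MBC of cationic antimicrobial peptides by a broth method adapted for cationic peptides, against E. coli ATCC 25922 and clinical MDR isolates (ESBL, KPC, NDM). Some peptides made as TFA or acetate salts. Each run on a different day with multiple replicates.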

[5] = test system: Escherichia coli—Extended spectrum beta-lactamase; type: cell-based
Method in brief: as §5

[6] = test system: Escherichia coli—Carbapenemase-producing organism; New-Dehli Metallobetalactamase; type: cell-based
Method in brief: as §5

[7] = test system: Escherichia coli—Carbapenemase-producing organism; Klebsiella pneumoniae carbapenemase; type: cell-based
Method in brief: as §5

[8] = test system: Salmonella Enteritidis; type: cell-based
Text: as §2, §3

[9] = in vitro; settings: red blood cells
Method: Peptides were tested for activity using as minimum inhibitory concentration (MIC), and minimum bactericidal concentration (MBC) determinations. For certain peptides, a hemolysis test was also conducted to determine HC50 (μg/mL) as an indicator of hemolytic activity based on the concentration of an antimicrobial compound that kills 50% red blood cells.
In Table 27, the designations P2, P2M, P3, P3M, P4, P4M, P5, P5M, P6, and P6M refer to peptides P2_CCH, P2_CCH_T15K_P7R, P3_CCH, P3_CCH_D8K_Q23C, P4_CCH, P4_CCH_P31K, P5_CCH, P5_CCH_A19K, P6_CCH, and P6_CCH_S12K, respectively, as defined above.

[10] = test system: Escherichia coli: ATCC 9723H; type: cell-based; settings: ATCC 9723
Method in brief: (§6)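 MIC and MBC were run by broth microdilution adapted from Hancock cationic-AMP and CLSI methods, in Mueller Hinton broth (+5% lysed horse blood for S. pyogenes) at about 5×10^5 CFU/mL. Peptides came from two-fold 10× stocks (2560–5 μg/mL) and were incubated 16-24 h at 37 °C. For MBC, the MIC well and two more-concentrated wells were plated on MHA for 24 h at 37 °C.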

[11] = test system: Staphylococcus aureus: ATCC 6538P; type: cell-based; settings: ATCC 6538
Method in brief: as §6

[12] = test system: Streptococcus pyogenes: unknown strain, hospital isolate; type: cell-based; settings: unknown strain, hospital isolate
Method in brief: as §6

[13] = test system: Mycobacterium smegmatis (MC^2155); type: cell-based; settings: Mycobacterium (MC^2155)
Method in brief: as §6

| Minimum Inhibitory Concentration (MIC) [1] [µg/mL] | Minimum Inhibitory Concentration (MIC) ([2]; Methicillin resistant) [µg/mL] | Minimum Inhibitory Concentration (MIC) ([3]; ATCC 29213) [µg/mL] | Minimum Inhibitory Concentration (MIC) [4] [µg/mL] | Minimum Inhibitory Concentration (MIC) [5] [µg/mL] | Minimum Inhibitory Concentration (MIC) [6] [µg/mL] | Minimum Inhibitory Concentration (MIC) [7] [µg/mL] | Minimum Inhibitory Concentration (MIC) [8] [µg/mL] | MIC [10] [µg/mL] | MIC [11] [µg/mL] | MIC [12] [µg/mL] | MIC [13] [µg/mL] | Compound | MBC [10] [µg/mL] | MBC [11] [µg/mL] | MBC [12] [µg/mL] | further results |
| --- | --- | --- | --- | --- | --- | --- | --- | --- | --- | --- | --- | --- | --- | --- | --- | --- |
| 16 to 32 | 64 to 128 | 64 to 128 | 2 to 4 | 4 to 8 | 4 to 8 | 4 to 8 | 16 to 32 | – | – | – | – | CC[C@H](C)[C@H](NC(=O)[C@H](Cc1ccccc1)NC(=O)[C@@H]1CCCN1C(=O)[C@H](CC(C)C)NC(=O)[C@@H](N)Cc1ccccc1)C(=O)N[C@@H](C)C(=O)N[C@@H](CCCNC(=N)N)C(=O)N[C@@H](CC(C)C)C(=O)N[C@@H](C)C(=O)N[C@@H](C)C(=O)N[C@@H](CCCCN)C(=O)N[C@H](C(=O)N[C@@H](Cc1ccccc1)C(=O)N1CCC[C@H]1C(=O)N[C@@H](CO)C(=O)N[C@H](C(=O)N[C@H](C(=O)N[C@@H](CS)C(=O)N[C@@H](CO)C(=O)N[C@H](C(=O)N[C@H](C(=O)N[C@@H](CCCCN)C(=O)N[C@@H](CCCCN)C(=O)N[C@@H](CS)C(=O)O)[C@@H](C)O)C(C)C)[C@@H](C)CC)[C@@H](C)CC)C(C)C [Ran-4] (H-FLPFIARLAAKVFPSIICSVTKKC-OH; N-terminus and C-terminus assumed) | – | – | – | – |
| 16 to 64 | 32 to 64 | 64 to 128 | 4 to 8 | 2 to 8 | 4 to 8 | 8 | 32 to 64 | – | – | – | – | FFPRVLRLANKFLPKIYCALPKSVGN [P2_CCH_T15K_P7R] | – | – | – | MBC [7]: 8 µg/mL; MIC [7]: 8 µg/mL; HC50 ([9]; HC50 (hemolysis test)): 64 µg/mL |
| 16 to 32 | 64 to 128 | 64 to 128 | 4 | 4 | 4 to 8 | 4 | 16 to 32 | – | – | – | – | CC[C@H](C)[C@H](NC(=O)[C@H](CCCCN)NC(=O)[C@H](CCCCN)NC(=O)CNC(=O)[C@@H](NC(=O)[C@@H](NC(=O)[C@H](CCCCN)NC(=O)[C@@H](NC(=O)[C@@H](NC(=O)[C@H](CCC(=O)O)NC(=O)[C@H](Cc1c[nH]c2ccccc12)NC(=O)[C@H](CC(C)C)NC(=O)CN)[C@@H](C)O)[C@@H](C)CC)[C@@H](C)O)[C@@H](C)O)C(=O)N[C@@H](C)C(=O)N[C@@H](CC(C)C)C(=O)N[C@@H](CC(N)=O)C(=O)N[C@@H](CC(C)C)C(=O)N[C@@H](CC(C)C)C(=O)N[C@@H](CC(=O)O)C(=O)N[C@@H](CCCCN)C(=O)N[C@H](C(=O)N[C@@H](CCCCN)C(=O)N[C@@H](CS)C(=O)N[C@@H](CCCCN)C(=O)N[C@H](C(=O)N[C@@H](C)C(=O)NCC(=O)NCC(=O)N[C@@H](CS)C(=O)N1CCC[C@H]1C(=O)N1CCC[C@H]1C(=O)O)[C@@H](C)CC)[C@@H](C)CC [Peptide P6_CCH_S12K] (H-GLWETIKTTGKKIALNLLDKIKCKIAGGCPP-OH; N-terminus and C-terminus assumed) | – | – | – | MBC [4]: 4 µg/mL (≈ 1.21 µM); MIC [4]: 4 µg/mL (≈ 1.21 µM); MBC [5]: 4 µg/mL (≈ 1.21 µM); MIC [5]: 4 µg/mL (≈ 1.21 µM) |
| 64 | – | – | 8 to 16 | 8 to 16 | 16 to 32 | 8 | 64 to 128 | 16 to 64 | 128 to 256 | 128 (≈ 39.1 µM) | 2 (≈ 0.612 µM) | CC[C@H](C)[C@H](NC(=O)[C@H](CO)NC(=O)[C@H](CCCCN)NC(=O)CNC(=O)[C@@H](NC(=O)[C@@H](NC(=O)[C@H](CCCCN)NC(=O)[C@@H](NC(=O)[C@@H](NC(=O)[C@H](CCC(=O)O)NC(=O)[C@H](Cc1c[nH]c2ccccc12)NC(=O)[C@H](CC(C)C)NC(=O)CN)[C@@H](C)O)[C@@H](C)CC)[C@@H](C)O)[C@@H](C)O)C(=O)N[C@@H](C)C(=O)N[C@@H](CC(C)C)C(=O)N[C@@H](CC(N)=O)C(=O)N[C@@H](CC(C)C)C(=O)N[C@@H](CC(C)C)C(=O)N[C@@H](CC(=O)O)C(=O)N[C@@H](CCCCN)C(=O)N[C@H](C(=O)N[C@@H](CCCCN)C(=O)N[C@@H](CS)C(=O)N[C@@H](CCCCN)C(=O)N[C@H](C(=O)N[C@@H](C)C(=O)NCC(=O)NCC(=O)N[C@@H](CS)C(=O)N1CCC[C@H]1C(=O)N1CCC[C@H]1C(=O)O)[C@@H](C)CC)[C@@H](C)CC [Peptide P6_CCH] (H-GLWETIKTTGKSIALNLLDKIKCKIAGGCPP-OH; N-terminus and C-terminus assumed) | 16 to 64 | 256 (≈ 78.3 µM) | 128 (≈ 39.1 µM) | Minimum Inhibitory Concentration (MIC) ([2]; MRSA, Gram positive): 128+ ug/mL; MBC ([2]; Methicillin resistant): 256 µg/mL (≈ 78.3 µM); Minimum Inhibitory Concentration (MIC) ([3]; S. aureus ATCC 29213, Gram positive): 128+ ug/mL |
| 16 to 64 | 2 to 8 | 2 to 8 | 4 to 16 | 4 to 16 | 4 to 16 | 4 to 16 | 16 to 64 | – | – | – | – | CC[C@H](C)[C@H](NC(=O)[C@@H](NC(=O)[C@@H]1CCCN1C(=O)[C@H](Cc1ccccc1)NC(=O)[C@@H](N)Cc1ccccc1)[C@@H](C)CC)C(=O)N[C@@H](C)C(=O)N[C@@H](CCCNC(=N)N)C(=O)N[C@@H](CC(C)C)C(=O)N[C@@H](C)C(=O)N[C@@H](C)C(=O)N[C@@H](CCCCN)C(=O)N[C@H](C(=O)N[C@H](C(=O)N1CCC[C@H]1C(=O)N[C@@H](CO)C(=O)N[C@@H](CC(C)C)C(=O)N[C@H](C(=O)N[C@@H](CS)C(=O)N[C@@H](CCCCN)C(=O)N[C@H](C(=O)N[C@H](C(=O)N[C@@H](CCCCN)C(=O)N[C@@H](CCCCN)C(=O)N[C@@H](CS)C(=O)O)[C@@H](C)O)C(C)C)C(C)C)[C@@H](C)CC)C(C)C [Peptide P5_CCH_A19K] (H-FFPIIARLAAKVIPSLVCKVTKKC-OH; N-terminus and C-terminus assumed) | – | – | – | HC50 ([9]; RPMI): 64 to 128 µg/mL |
| 32 to 128 | 2 to 8 | 4 to 8 | 4 to 16 | 8 to 32 | 4 to 32 | 4 to 16 | 64 to 128 | 16 (≈ 6.18 µM) | 4 (≈ 1.54 µM) | 128 (≈ 49.4 µM) | 2 (≈ 0.772 µM) | CC[C@H](C)[C@H](NC(=O)[C@@H](NC(=O)[C@@H]1CCCN1C(=O)[C@H](Cc1ccccc1)NC(=O)[C@@H](N)Cc1ccccc1)[C@@H](C)CC)C(=O)N[C@@H](C)C(=O)N[C@@H](CCCNC(=N)N)C(=O)N[C@@H](CC(C)C)C(=O)N[C@@H](C)C(=O)N[C@@H](C)C(=O)N[C@@H](CCCCN)C(=O)N[C@H](C(=O)N[C@H](C(=O)N1CCC[C@H]1C(=O)N[C@@H](CO)C(=O)N[C@@H](CC(C)C)C(=O)N[C@H](C(=O)N[C@@H](CS)C(=O)N[C@@H](C)C(=O)N[C@H](C(=O)N[C@H](C(=O)N[C@@H](CCCCN)C(=O)N[C@@H](CCCCN)C(=O)N[C@@H](CS)C(=O)O)[C@@H](C)O)C(C)C)C(C)C)[C@@H](C)CC)C(C)C [Peptide P5_CCH] (H-FFPIIARLAAKVIPSLVCAVTKKC-OH; N-terminus and C-terminus assumed) | 32 (≈ 12.4 µM) | 16 (≈ 6.18 µM) | 128 (≈ 49.4 µM) | MBC [13]: >256 µg/mL |
